From the supplement of paper PMC10627819

What was measured:
S. pneumoniae D39V [1] = assay: Bliss interaction score (quartile over a dose matrix) (fitness difference); higher = more antagonism (negative = synergy)
Procedure, shortened: (§1)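 The Bliss score subtracts expected fitness, the product of the single-drug fitness values, from observed fitness. Fitness is plate-normalised OD595 at entry into stationary phase, relative to the robust no-drug mean and capped at 1, with single-drug fitness inferred from combinations. Summaries are quartiles over technical, biological and donor/recipient replicates.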

S. aureus Newman [2] = assay: as above
Procedure, shortened: as §1

B. subtilis 168 [3] = assay: as above
Procedure, shortened: as §1

S. aureus DSM 20231 [4] = assay: as above
Procedure, shortened: as §1

B. subtilis 168 [5] = assay: fitness (endpoint OD595 vs no drug) (fraction); higher = more growth
Procedure, shortened: (§2)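 With the first reading as background, OD595 was measured every 30 min for 14 h in 384-well plates kept at 37 °C and inoculated at OD595 0.01. TSB, LB Lennox or CY was the medium. Fitness is the optical density at the transition into stationary phase divided by the robust mean of no-drug control wells, with a cap of 1.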

S. aureus DSM 20231 [6] = assay: as above
Procedure, shortened: as §2

S. pneumoniae D39V [7] = assay: as above
Procedure, shortened: as §2

S. aureus Newman [8] = assay: as above; conditions: main component drawn
Procedure, shortened: as §2
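Throughout, for Bliss interaction score (quartile over a dose matrix): first quartile when negative (synergy) and third quartile when positive (antagonism).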

CO/N=C(\C(=O)N[C@@H]1C(=O)N2C(C(=O)O)=C(COC(C)=O)CS[C@H]12)c1csc(N)n1 [Cefotaxime] + COc1cc(Cc2cnc(N)nc2N)cc(OC)c1OC [Trimethoprim]
Conditions	Bliss interaction score
B. subtilis 168 [3]	0.0814
S. aureus DSM 20231 [4]	0.0326
S. aureus Newman [2]	-0.0597
S. pneumoniae D39V [1]	0.224

one replicate
Conditions	fitness
B. subtilis 168 [5], first compound 0.00775 µg/mL, partner 0.125 µg/mL	0.309
B. subtilis 168 [5], first compound 0.00775 µg/mL, partner 0.25 µg/mL	0.288
B. subtilis 168 [5], first compound 0.00775 µg/mL, partner 0.5 µg/mL	0.269
B. subtilis 168 [5], first compound 0.0155 µg/mL, partner 0.125 µg/mL	0.262
B. subtilis 168 [5], first compound 0.0155 µg/mL, partner 0.25 µg/mL	0.181
B. subtilis 168 [5], first compound 0.0155 µg/mL, partner 0.5 µg/mL	0.0769
B. subtilis 168 [5], first compound 0.031 µg/mL, partner 0.125 µg/mL	0.149
B. subtilis 168 [5], first compound 0.031 µg/mL, partner 0.25 µg/mL	0.0914
B. subtilis 168 [5], first compound 0.031 µg/mL, partner 0.5 µg/mL	0.0904
B. subtilis 168 [5], first compound 0.0625 µg/mL, partner 0.1 µg/mL	0.47
B. subtilis 168 [5], first compound 0.0625 µg/mL, partner 0.125 µg/mL	0.432
B. subtilis 168 [5], first compound 0.0625 µg/mL, partner 0.2 µg/mL	0.454
B. subtilis 168 [5], first compound 0.0625 µg/mL, partner 0.4 µg/mL	0.402
B. subtilis 168 [5], first compound 0.125 µg/mL, partner 0.1 µg/mL	0.364
B. subtilis 168 [5], first compound 0.125 µg/mL, partner 0.125 µg/mL	0.345
B. subtilis 168 [5], first compound 0.125 µg/mL, partner 0.2 µg/mL	0.336
B. subtilis 168 [5], first compound 0.125 µg/mL, partner 0.4 µg/mL	0.296
B. subtilis 168 [5], first compound 0.25 µg/mL, partner 0.1 µg/mL	0.109
B. subtilis 168 [5], first compound 0.25 µg/mL, partner 0.125 µg/mL	0.274
B. subtilis 168 [5], first compound 0.25 µg/mL, partner 0.2 µg/mL	0.223
B. subtilis 168 [5], first compound 0.25 µg/mL, partner 0.4 µg/mL	0.127
B. subtilis 168 [5], first compound 0.5 µg/mL, partner 1 µg/mL	0.104
B. subtilis 168 [5], first compound 0.5 µg/mL, partner 2 µg/mL	0.129
B. subtilis 168 [5], first compound 1 µg/mL, partner 1 µg/mL	0.0524
B. subtilis 168 [5], first compound 1 µg/mL, partner 2 µg/mL	0.0575
B. subtilis 168 [5], first compound 2 µg/mL, partner 1 µg/mL	0.0669
B. subtilis 168 [5], first compound 2 µg/mL, partner 2 µg/mL	0.0449
S. aureus DSM 20231 [6], first compound 0.039 µg/mL, partner 0.125 µg/mL	0.663
S. aureus DSM 20231 [6], first compound 0.312 µg/mL, partner 0.125 µg/mL	0.498
S. aureus DSM 20231 [6], first compound 0.312 µg/mL, partner 0.25 µg/mL	0.384
S. aureus DSM 20231 [6], first compound 0.312 µg/mL, partner 0.5 µg/mL	0.0438

fitness
Conditions	partner 0.125 µg/mL	partner 0.25 µg/mL	partner 0.5 µg/mL	partner 1 µg/mL
B. subtilis 168 [5], first compound 0.0625 µg/mL	–	0.386	0.363	–
B. subtilis 168 [5], first compound 0.125 µg/mL	–	0.285	0.27	–
B. subtilis 168 [5], first compound 0.25 µg/mL	–	0.217	0.19	–
B. subtilis 168 [5], first compound 0.5 µg/mL	–	–	0.125	–
B. subtilis 168 [5], first compound 1 µg/mL	–	–	0.108	–
B. subtilis 168 [5], first compound 2 µg/mL	–	–	0.0672	–
S. aureus DSM 20231 [6], first compound 0.039 µg/mL	–	0.558	0.14	0.047
S. aureus DSM 20231 [6], first compound 0.078 µg/mL	0.584	0.536	0.207	0.0436
S. aureus DSM 20231 [6], first compound 0.156 µg/mL	0.605	0.57	0.299	0.0551

COc1cccc2c1C(=O)c1c(O)c3c(c(O)c1C2=O)C[C@@](O)(C(=O)CO)C[C@@H]3O[C@H]1C[C@H](N)[C@H](O)[C@H](C)O1 [Doxorubicin] + CC(=O)NC[C@H]1CN(c2ccc(N3CCOCC3)c(F)c2)C(=O)O1 [Linezolid]
Conditions	Bliss interaction score
B. subtilis 168 [3]	-0.0705
S. aureus DSM 20231 [4]	-0.0425
S. aureus Newman [2]	0.0954
S. pneumoniae D39V [1]	-0.113

fitness
Conditions	first compound 0.25 µg/mL	first compound 0.5 µg/mL	first compound 0.625 µg/mL	first compound 1 µg/mL	first compound 1.25 µg/mL	first compound 2.5 µg/mL
B. subtilis 168 [5], partner 0.125 µg/mL	–	–	0.556	–	0.489	0.311
B. subtilis 168 [5], partner 0.25 µg/mL	–	–	0.0946	–	0.078	0.0654
B. subtilis 168 [5], partner 0.5 µg/mL	–	–	0.0377	–	0.0497	0.0425
S. aureus DSM 20231 [6], partner 0.125 µg/mL	–	–	0.762	–	0.814	0.716
S. aureus DSM 20231 [6], partner 0.25 µg/mL	–	–	0.617	–	0.603	0.514
S. aureus DSM 20231 [6], partner 0.5 µg/mL	–	–	0.223	–	0.204	0.16
S. pneumoniae D39V [7], partner 0.105 µg/mL	0.755	0.756	–	0.746	–	–
S. pneumoniae D39V [7], partner 0.2 µg/mL	0.49	0.487	–	0.412	–	–
S. pneumoniae D39V [7], partner 0.21 µg/mL	0.633	0.66	–	0.674	–	–
S. pneumoniae D39V [7], partner 0.4 µg/mL	0.351	0.331	–	0.302	–	–
S. pneumoniae D39V [7], partner 0.42 µg/mL	0.472	0.432	–	0.377	–	–
S. pneumoniae D39V [7], partner 0.8 µg/mL	0.155	0.153	–	0.141	–	–

fitness, one replicate
Conditions	first compound 0.625 µg/mL	first compound 1.25 µg/mL	first compound 2.5 µg/mL
B. subtilis 168 [5], partner 0.0625 µg/mL	0.956	0.901	0.574
S. aureus DSM 20231 [6], partner 1 µg/mL	0.0276	0.0358	0.0376

COc1cccc2c1C(=O)c1c(O)c3c(c(O)c1C2=O)C[C@@](O)(C(=O)CO)C[C@@H]3O[C@H]1C[C@H](N)[C@H](O)[C@H](C)O1 [Doxorubicin] + CCCCCCCCCC(=O)N[C@@H]1[C@H]([C@@H]([C@H](O[C@H]1OC2=C3C=C4C=C2OC5=C(C=C(C=C5)[C@H]([C@H]6C(=O)N[C@@H](C7=C(C(=CC(=C7)O)OC8[C@H]([C@H]([C@@H]([C@H](O8)CO)O)O)O)C9=C(C=CC(=C9)[C@H](C(=O)N6)NC(=O)[C@@H]4NC(=O)[C@@H]1C2=CC(=CC(=C2)OC2=C(C=CC(=C2)[C@H](C(=O)N[C@H](CC2=CC(=C(O3)C=C2)Cl)C(=O)N1)N)O)O)O)C(=O)O)O[C@H]1[C@@H]([C@H]([C@@H]([C@H](O1)CO)O)O)NC(=O)C)Cl)CO)O)O [Teicoplanin]
main component drawn
Conditions	Bliss interaction score
B. subtilis 168 [3]	0.0931
S. aureus DSM 20231 [4]	0.0684
S. aureus Newman [2]	0.0378
S. pneumoniae D39V [1]	0.102

fitness, S. aureus Newman [8]
Conditions	first compound 0.625 µg/mL	first compound 1.25 µg/mL	first compound 2.5 µg/mL
partner 0.1562 µg/mL	0.886	0.809	0.728
partner 0.3125 µg/mL	0.872	0.808	0.713
partner 0.625 µg/mL	0.841	0.791	0.677

fitness
Conditions	first compound 0.625 µg/mL	first compound 1.25 µg/mL	first compound 2.5 µg/mL
S. aureus DSM 20231 [6], partner 0.1562 µg/mL, main component drawn	0.889	0.885	0.922
S. aureus DSM 20231 [6], partner 0.3125 µg/mL, main component drawn	0.979	0.965	0.939
S. aureus DSM 20231 [6], partner 0.625 µg/mL, main component drawn	≥ 1	≥ 1	0.978
S. aureus Newman [8], partner 0.62 µg/mL, one replicate	0.713	0.736	0.716
S. aureus Newman [8], partner 1.24 µg/mL, one replicate	0.666	0.613	0.622
S. aureus Newman [8], partner 2.48 µg/mL, one replicate	0.339	0.283	0.237
